Reference: patent publication US10421944B2, “Method for producing neural stem cells using synthetic peptide” (TOAGOSEI CO. LTD., priority 2015, dated 2019)

Tested on: CCD1079SK cells (fibroblasts from human skin tissue)
Assay: Test to evaluate neural stem cell-inducing activity (fluorescent immunostaining of nestin and GFAP in fibroblasts)
Assay type: cell-based
Conditions: peptide 10 μM, 18 days of culture at 30° C., compared with peptide-free group
Procedure: Neural stem cells were induced (prepared) from fibroblasts using the neural stem cell-inducing synthetic peptide (Sample 1) obtained in Example 1 above. The test cells were CCD1079SK cells (ATCC™ CRL-2097), a cultured cell line of fibroblasts from human skin tissue. The test details were as follows.
Previously frozen CCD1079SK cells were seeded to a cell density of 1.2×10^5/well in a cell culture chamber (also called a slide chamber). The cell culture chamber had one well per slide (culture area 19 mm×44 mm). Specifically, the thawed CCD1079SK cells were suspended in ordinary Dulbecco's modified Eagle's medium (DMEM) to prepare a cell suspension with a cell density of 1.2×10^5/mL, and 1 mL of this cell suspension was seeded in the aforementioned cell culture chamber. The DMEM medium was ordinary DMEM (Wako Pure Chemical Industries, Ltd., Cat. No. 043-30085) with 10% FBS, 100 units/mL penicillin and 100 μg/mL streptomycin added thereto. The CCD1079SK cells seeded in the cell culture chamber were pre-cultured for several hours (about six hours) until the cells adhered to the bottom of the culture container in the incubator under conditions of 5% CO2, 37° C. […]

## LLLLLLVGLTAPAGKKRTLRKNDRKKR [Sample 1]
Confocal laser microscopy (FIG. 1 vs FIG. 3)
  expression of neural stem cell marker protein nestin (cells with increased quantities of nestin protein): more cells with increased quantities of nestin protein
Confocal laser microscopy (FIG. 2 vs FIG. 4)
  expression of neural stem cell marker protein GFAP (cells with increased quantities of GFAP): more cells with increased quantities of nestin protein and GFAP
